We go through 85 molecules from PubChem BioAssay AID2305 (GlaxoSmithKline (GSK), 2010).

The subject of the assay is P. falciparum 3D7 growth, pLDH absorbance. The assay is described as follows: P. falciparum 3D7 growth inhibition, dose response, strain 3D7 (AID 2305).

By IC50 is commonly meant the concentration at which inhibition is half-maximal. Consider `CN(C)CCOc1cc(NC(=O)Nc2ccc(-c3ccccc3)cc2Cl)ccc1I`, for which the IC50 worked out at 250 nM.
The result for `O=C(Nc1ccc(-c2ccccc2)cc1)Nc1cccc(Cn2nc(Cl)c(N3CCNCC3)cc2=O)c1` reads 370 nM; that for `O[C@@H](c1ccccc1)[C@@H]1CN(CCc2ccccc2)CC[C@@]1(O)c1ccccc1`, 1040 nM.
With `CC(=O)Oc1c(C(=O)C2CCC(C(C)(C)C)CC2)c(OC(C)=O)c2ccccc2c1OC(C)=O` (stereo not given), the IC50 came to 270 nM.
With `Nc1ccc2[nH]cc(C3CCN(CC4CCN(C(=O)/C=C/c5ccc(Cl)c(Cl)c5)CC4)CC3)c2n1`, the IC50 was 700 nM.
The result for `Cn1c(NCc2cc(F)cc3c2OCOC3)nc2cc(Nc3ccnc(Nc4cccc(CS(C)(=O)=O)c4)n3)ccc21` reads 150 nM; that for `CCC(N)(C#Cc1ccc(-c2c(C)[nH]c(C)c(Br)c2=O)cc1)CC`, 40 nM; that for `CC(=O)Nc1ccc(C2NC(=O)NC(c3ccccc3)=C2c2nc3ccccc3s2)cc1` (stereo not given), 1110 nM.
The result for `O=c1cc(NCCCNCc2cc(C(F)(F)F)ccc2F)[nH]c2ccccc12` reads 830 nM; that for `CC(C)CNCc1ccc(-c2ccc(CN(CCCN3CCN(C)CC3)C(=O)/C=C/c3ccccc3)cc2)cc1`, 920 nM.
The result for `O=C(CC1CCCC1)Nc1ccc2c(c1)CCC2` reads 870 nM; that for `Cn1nc(-c2cccc(CN[C@@H]3CCc4ccc(O)cc43)c2)c2cnc(NC3CCCC3)nc21`, 740 nM.
As to `Cc1[nH]c2ccc(O)cc2c1C1CCN(CC2CCC(NC(=O)/C=C/c3c(Cl)cccc3Cl)CC2)CC1` (stereo not given), the IC50 amounted to 820 nM.
In the case of `CCCCCCCC1=NN2C(=N)C(=Cc3cc(Br)c(OCc4ccc(F)cc4)c(OCC)c3)C(=O)N=C2S1` it was 1050 nM; in that of `CC(C)(CN)c1nc(-c2ccc(Cl)c(O)c2)c(-c2ccnc(N)n2)[nH]1`, 980 nM; in that of `O=C(O[C@H]1CN[C@H](C#Cc2cc3c(Nc4ccc(OCc5cccc(F)c5)c(Cl)c4)ncnc3s2)C1)N1CCCC1`, 710 nM.
The result for `CC(=O)NCCNc1cc(N2CCc3ncnc(Nc4ccc(OCc5c(F)cccc5F)c(Cl)c4)c3C2)ncn1` reads 160 nM.
Molecule `Cc1cc(N[C@@H](CC(C)C)C(=O)NCc2cccc(F)c2)nc(NCCc2ccccc2)n1` returned an IC50 of 1080 nM. This IC50 lies about 6.8-fold higher than the previous one.
In the case of `CCCCCCCN1[C@@H]2CC[C@H]1CC(CCOc1ccnc3ccc(OC)cc13)C2` (stereo not given in full) it was 390 nM; in that of `CN(C)CCN(C)Cc1cccc(-c2cccc(NC(=O)c3cccc(C#N)c3)c2)c1`, 870 nM.
`CN(C(=O)/C=C/c1c(Cl)cccc1Cl)C1CCN(CCCCCNC(=O)/C=C/c2ccc(Cl)c(Cl)c2)CC1`: the 50% inhibitory concentration (IC50) came out at 360 nM.
Molecule `O=C(Nc1cccc(CN2CCCN(Cc3ccccc3)CC2)c1)c1ccc(-c2ccccc2)cc1` gave an IC50 of 1300 nM.
As to `COc1ccc(Nc2nc(N)c3cc(OC)c(OC)cc3n2)cc1OC`, the IC50 was 730 nM. Compared with the last molecule, the IC50 is about 1.8-fold lower.
The result for `C[C@@H]1C[C@@H]([C@H](O)CC2CC(=O)NC(=O)C2)C(=O)[C@@H](C)C1` reads 530 nM; that for `COc1cccc(CN2CCCC(OC(c3ccccc3)c3ccccc3)C2)c1O` (stereo not given), 930 nM.
The result for `COC(=O)c1sc2ccccc2c1NC(=O)c1ccc(C)c(C)c1` reads 1070 nM; that for `O=C(NCCCCN1CCC(c2ccc(OC(F)(F)F)cc2)CC1)c1ccc(NC(=O)c2ccc(Cl)cc2)cc1`, 630 nM; that for `N#Cc1ccc(N(CCOC(=O)c2ccc(Br)s2)Cc2ccccc2C(F)(F)F)cc1C(F)(F)F`, 1070 nM.
In the case of `O=C(CCNc1ccnc(NCCc2ccc(F)cc2)n1)Nc1ccccc1` it was 830 nM; in that of `CCCCCCCCCn1c(NCc2cc(Cl)ccc2O)nc2ccccc21`, 830 nM.
Take `Cc1cccc2[nH]c(-c3ccc(-c4ccc(CN5CCC(N)C5)cc4)s3)nc12` (stereo not given): the IC50 was determined as 370 nM.
The result for `S=C(NCCc1ccc(Cl)cc1)N1CCC(CN2CCC(c3c[nH]c4ccccc34)CC2)CC1` reads 1000 nM; that for `COc1ccc(-c2csc(N(CCCN(C)C)C(=O)c3cc4c(C)nn(-c5ccccc5)c4s3)n2)cc1`, 620 nM; that for `CC(C)c1ccc2[nH]c(C(=O)NC3CCC(N4CCCc5ccc(C#N)cc5C4)CC3)cc2c1` (stereo not given), 1090 nM.
The molecule `CCNc1cc(C)nc(Nc2ccc(NC(=O)c3ccco3)cc2)n1` registered an IC50 of 1090 nM.
In the case of `FC(F)(F)Oc1cccc(CNc2noc(-c3sccc3Br)n2)c1` it was 880 nM.
Regarding `CCCNCc1ccc(-c2ccc(CN(Cc3ccc4c(c3)OCO4)C(=O)[C@H]3CCCO3)cc2)nc1`, the IC50 turned out to be 810 nM. The IC50 values of the last two molecules are within 1.5-fold of each other.
The result for `CCCc1cc(Cc2cnc(N)nc2N)cc2c1OC(C)C2C` (stereo not given) reads 670 nM; that for `N#Cc1ccccc1Sc1ccccc1C(=O)Nc1ccc2ccccc2n1`, 510 nM.
The result for `CCn1cc2c3c(cc(C(=O)N[C@@H](Cc4ccccc4)[C@H](O)CNCc4cccc(OC)c4)cc31)N(C)S(=O)(=O)CC2` reads 670 nM; that for `N#Cc1c(N)n(CCc2ccc(F)cc2)c2nc3ccccc3nc12`, 970 nM; that for `COCCNCc1ccc(-c2ccc(CNC3CCN(Cc4ccccc4)CC3)cc2)cc1`, 670 nM.
In the case of `COc1cccc(C(=O)NC(NC(=S)Nc2ccc(OC)cc2[N+](=O)[O-])C(Cl)(Cl)Cl)c1` (stereo not given) it was 760 nM; in that of `Cc1cccc(-c2ccc(CNC3CCN(CC4Cn5c(=O)ccc6ccc(F)c4c65)CC3)cn2)c1` (stereo not given), 1530 nM.
In turn, `CCCNCc1ccc(-c2ccc(CN(CCOC)C(=O)Cc3cccnc3)cc2)nc1` gave an IC50 of 820 nM.
The result for `COc1ccc2nccc([C@@H](O)CN3CCC(NC(=O)/C=C/c4cccc(-c5ccccc5)c4)CC3)c2c1` reads 250 nM; that for `Cc1ccc(CNc2cc(C(F)(F)F)nc(-c3ccc(S(C)(=O)=O)cc3)n2)cc1`, 500 nM; that for `CC(C)C(=O)NC(Nc1ccc([N+](=O)[O-])cc1)C(Cl)(Cl)Cl` (stereo not given), 840 nM.
The result for `O=C(Nc1ccc(Cl)cc1Cl)NC1CCN(CCCCCNC(=O)[C@@H]2C[C@H]2c2ccc(Cl)c(Cl)c2)CC1` reads 370 nM; that for `COc1ccc(N2CCN(CCc3ccc(NC(=O)c4ccc([N+](=O)[O-])cc4)cc3)CC2)c(OC)c1`, 1170 nM; that for `CC(C)(C)OC(=O)/C=C(\C(=O)OCc1ccc([N+](=O)[O-])cc1)c1csc(NC(c2ccccc2)(c2ccccc2)c2ccccc2)n1`, 860 nM.
Turning to `CC(C)CN1CCCN(Cc2cccc(NC(=O)c3ccc(Cl)c(Cl)c3)c2)CC1`, the IC50 is 890 nM.
`CC(C)(CNCc1ccccc1)c1nc(-c2ccc(Cl)c(O)c2)c(-c2ccncc2)[nH]1` yielded an IC50 of 540 nM. Compared with the last molecule, the IC50 is about 1.6-fold lower.
In turn, `CN(C)C(=O)c1ccc(CN(Cc2ccc(OC(C)(C)C)cc2)Cc2ccc3c(c2)OCCO3)cc1` had an IC50 of 830 nM.
In the case of `CCC[C@@H]([C@@H](CC(C)C)C(=O)N[C@@H](CCCCNC(=O)OCc1ccccc1)C(=O)Nc1ncccn1)N(O)C=O` it was 60 nM; in that of `COc1ccc(Br)cc1/C=C/C(=O)Nc1ccc(C2CCCN(C)C2)cc1` (stereo not given), 630 nM.
In the case of `Cc1ccc(CNc2ccc3ncc(-c4cccc(C(=O)NCCN(C)C)c4)n3n2)c(C)c1` it was 590 nM.
The result for `CN1Cc2cc(NC(=O)/C=C/c3ccccc3Cl)ccc2C(C)(C)C1` reads 640 nM; that for `OC1CCCN(Cc2ccc(-c3cccc(-c4nc5ccc(F)cc5[nH]4)c3)cc2)C1` (stereo not given), 870 nM; that for `FC(F)(F)c1ccc2nccc(NN=Cc3cccc(Cl)c3)c2c1`, 820 nM.
For `O=C(COc1ccccc1)Nn1cnc2ccccc21`, the IC50 was 1050 nM.
In the case of `CCc1cn2c3c(cc(C(=O)N[C@@H](Cc4ccccc4)[C@H](O)CNCc4ccccc4C)cc13)N(C)S(=O)(=O)CC2` it was 270 nM; in that of `COc1ccc2nc(C)cc(NC3Cc4ccccc4C3)c2c1`, 840 nM; in that of `c1ccc2c(c1)ncc1c3ccccc3[nH]c21`, 870 nM.
In the case of `O=C(Nc1cc(Cl)cc(Cl)c1)Nc1ccccc1C(=O)NC1CCCCC1` it was 750 nM; in that of `O=C(NCCCCN1CCC(c2ccc3c(c2OCCOCCO)CCCC3)CC1)c1ccc(-c2ccc(C(F)(F)F)cc2)cc1`, 280 nM; in that of `O=C(Nc1ccc(-c2cccc(-c3nc4ccc(C(F)(F)F)cc4[nH]3)c2)cc1)Nc1ccc(Cl)c(Cl)c1`, 750 nM.
The result for `COc1cccc(NC(=O)c2ccc(NCCCN3CC(C)CC(C)C3)c([N+](=O)[O-])c2)c1` (stereo not given) reads 720 nM.
The molecule `O=c1cc(NCCCNCc2ccc(Cl)c(Cl)c2)[nH]c2ccc(Cl)cc12` gave an IC50 of 340 nM.
With `CCC[C@@H]([C@@H](CC1CCC(C)CC1)C(=O)N[C@@H](CO)C(=O)Nc1nccs1)N(O)C=O` (stereo not given in full), the IC50 was 320 nM.
The molecule `CCS(=O)(=O)Nc1ccc2[nH]c(O)c(C(=Nc3ccc(CN4CCCCC4)cc3)c3ccccc3)c2c1` came in with an IC50 of 60 nM.
`O=C(NC(c1ccccc1)c1ccc2cccnc2c1O)c1ccccc1` (stereo not given): the half-maximal inhibitory concentration (IC50) came to 430 nM.
The molecule `CS(=O)(=O)NCCCNCc1cccc(-c2cccc(-c3nc4ccc(F)cc4[nH]3)c2)c1` had an IC50 of 940 nM. Against the preceding molecule, the IC50 is about 2.2-fold higher.
The result for `O=[N+]([O-])c1cnc(Nc2ccccc2O)nc1Nc1ccccc1O` reads 900 nM; that for `Cc1cc(Cl)c(S(=O)(=O)N(C)c2ccccc2)cc1OCC(=O)NC1CCCCC1`, 300 nM.
The result for `COc1cccc(C2CCN(CCN3CCC(NC(=O)c4ccc(-c5ccc(C#N)cc5)cc4)CC3)CC2)c1` reads 700 nM.
In the case of `COc1ccc(CN2CCCC(OC(c3ccc(F)cc3)c3ccc(F)cc3)C2)c(O)c1` (stereo not given) it was 610 nM.
For `Cc1ccc(NC(=O)NC2CCN(CCCCCNC(=O)/C=C/c3ccc(Cl)c(Cl)c3)CC2)cc1C`, the IC50 worked out at 730 nM.
In the case of `CCc1cn2c3c(cc(C(=O)N[C@@H](Cc4cccc(F)c4)[C@H](O)CNC4CC4)cc13)N(C)S(=O)(=O)CC2` it was 140 nM; in that of `Cc1nc(SCC(=O)N2CCCC2=O)c2c(C)c(C)sc2n1`, 170 nM; in that of `O=C(N[C@H]1CCN(Cc2ccc(OCCCN3CCCCC3)cc2)C1)c1ccc(Oc2ccccc2)cc1`, 780 nM.
In the case of `COc1ccc(-c2cccc(CNC3CCN(CC4Cn5c(=O)ccc6ccc(F)c4c65)CC3)c2)cc1` (stereo not given) it was 1090 nM.
In the case of `Cc1cccc(-c2cc3cc(Nc4ccnc5cc(-c6nccs6)ccc45)ccc3[nH]2)c1` it was 170 nM; in that of `COc1cc(C)nc2ccc(NC(=O)COCC(=O)Nc3ccc4nc(C)cc(OC)c4c3)cc12`, 920 nM; in that of `CN(C)CCOc1ccc(N2CCN(CCCCNC(=O)c3ccc(NC(=O)c4ccc(Cl)cc4)cc3)CC2)cc1`, 830 nM.
